Assay results published in US20070128217A1 (priority 2003, published 2007).

Key:
[1] = tested on: recombinant human anti-SARS-CoV antibody 03-018; format: binding; design: Binding of antibody 03-018 to linear peptides of the N protein of SARS-CoV Urbani / Binding of antibody 03-018 to looped/cyclic peptides of the N protein of SARS-CoV Urbani: unit not given here
[2] = tested on: rabbit serum obtained by immunizing a rabbit with the SARS-CoV strain Frankfurt 1; format: binding; design: Binding of a rabbit serum to linear peptides / Binding of a rabbit serum to looped peptides / Rabbit serum linear peptides / Rabbit serum looped peptides / Binding of a rabbit serum to linear peptides of protein N of SARS-CoV Urbani (Rabbit serum linear peptides) / Binding of a rabbit serum to looped/cyclic peptides of protein N of SARS-CoV Urbani (Rabbit serum looped peptides): unit not given here
[3] = tested on: control sera (pooled serum of ten healthy LUMC hospital workers; commercial negative donor pooled serum from the Dutch bloodbank); format: binding, human; design: Binding of Control serum LUMC to linear peptides / Binding of Control serum Blood-bank to linear peptides / Binding of Control serum LUMC to looped peptides / Binding of Control Serum Blood-Bank to Looped peptides / Binding of Control serum LUMC to linear peptides of the protein M of SARS-CoV Urbani / Binding of Control serum Blood-bank to linear peptides of the protein M of SARS-CoV Urbani / Binding of Control serum LUMC to looped peptides of the protein M of SARS-CoV Urbani / Binding of Control Serum Blood-Bank to Looped peptides of the protein M of SARS-CoV Urbani: unit not given here
[4] = tested on: antibodies in sera from SARS patients (sera 1a, 1b, 2, 6, 37, 62, London, SARS-yellow, SARS-green); format: binding, human; design: Binding of serum 6 to linear peptides of protein X1 of SARS-CoV Urbani / Binding of serum 37 to linear peptides of protein X1 of SARS-CoV Urbani / Binding of serum 6 to looped/cyclic peptide (PEPSCAN-ELISA) / Binding of serum 37 to looped/cyclic peptide (PEPSCAN-ELISA) / Binding of serum 37 to looped/cyclic peptides of protein X1 of SARS-CoV Urbani / Binding of serum 6 to linear peptides of protein X2 / Binding of serum 37 to linear peptides of protein X2 / Binding of serum 37 to looped/cyclic peptides of protein X2 of SARS-CoV Urbani / Binding of serum 6 to linear peptides of protein M of SARS-CoV Urbani / Binding of serum 37 to linear peptides of protein M of SARS-CoV Urbani / Binding of serum 6 to looped/cyclic peptides of protein M of SARS-CoV Urbani / Binding of serum 37 to looped/cyclic peptides of protein M of SARS-CoV Urbani / Binding of serum 6 to linear peptides of protein X3 of SARS-CoV Urbani / Binding of serum 37 to linear peptides of protein X3 of SARS-CoV Urbani / Binding of serum 37 to looped/cyclic peptides of protein X3 of SARS-CoV Urbani / Binding of serum 6 to linear peptides of protein X4 of SARS-CoV Urbani / Binding of serum 37 to linear peptides of protein X4 of SARS-CoV Urbani / Binding of serum 37 to looped/cyclic peptides of protein X4 of SARS-CoV Urbani / Binding of serum 6 to linear peptides of protein X5 of SARS-CoV Urbani / Binding of serum 37 to linear peptides of protein X5 of SARS-CoV Urbani / Binding of serum 37 to looped/cyclic peptides of protein X5 of SARS-CoV Urbani / Binding of serum 6 to linear peptides of protein N of SARS-CoV Urbani / Binding of serum 37 to linear peptides of protein N of SARS-CoV Urbani / Binding of serum 6 to linear peptide (PEPSCAN-ELISA) / Binding of serum 1a to looped/cyclic peptides of protein N of SARS-CoV Urbani / Binding of serum 1b to looped/cyclic peptides of protein N of SARS-CoV Urbani / Binding of serum 2 to looped/cyclic peptides of protein N of SARS-CoV Urbani / Binding of serum 6 to looped/cyclic peptides of protein N of SARS-CoV Urbani / Binding of serum 37 to looped/cyclic peptides of protein N of SARS-CoV Urbani / Binding of serum 62 to looped/cyclic peptides of protein N of SARS-CoV Urbani / Binding of serum London to looped/cyclic peptides of protein N of SARS-CoV Urbani / Binding of serum SARS-green to looped/cyclic peptides of protein N of SARS-CoV Urbani: unit not given here

With AATVLQLPQGTTLPK the “Binding of antibody 03-018 to linear peptides of the N protein of SARS-CoV Urbani” value [1] was 0.1, the “Binding of antibody 03-018 to looped/cyclic peptides of the N protein of SARS-CoV Urbani” value [1] was 0.2 and the “Binding of a rabbit serum to linear peptides of protein N of SARS-CoV Urbani (Rabbit serum linear peptides)” value (from here on “Binding … (Rabbit serum linear peptides)”) [2] was 0.3. For the same sequence, the “Binding of a rabbit serum to looped/cyclic peptides of protein N of SARS-CoV Urbani (Rabbit serum looped peptides)” value [2] was 1.2.

For ARMASGGGETALALL, the “Binding of antibody 03-018 to linear peptides of the N protein of SARS-CoV Urbani” value [1] was 0.1, the “Binding of antibody 03-018 to looped/cyclic peptides of the N protein of SARS-CoV Urbani” value [1] was 0.3 and the “Binding … (Rabbit serum linear peptides)” value [2] was 0.2. The “Binding of a rabbit serum to looped/cyclic peptides of protein N of SARS-CoV Urbani (Rabbit serum looped peptides)” value [2] was 0.0, the “Binding of Control Serum Blood-Bank to Looped peptides” value [3] was 0.6 and the “Binding of Control serum Blood-bank to linear peptides” value [3] was 0.8. For the same sequence, the “Binding of Control serum LUMC to linear peptides” value [3] was 0.7 and the “Binding of Control serum LUMC to looped peptides” value [3] was 0.8.

In the case of DPQFKDNVILLNKHI, the “Binding of antibody 03-018 to linear peptides of the N protein of SARS-CoV Urbani” value [1] is reported as 0.1, the “Binding of antibody 03-018 to looped/cyclic peptides of the N protein of SARS-CoV Urbani” value [1] is reported as 0.3 and the “Binding … (Rabbit serum linear peptides)” value [2] is reported as 0.2. For the same sequence, the “Binding of a rabbit serum to looped/cyclic peptides of protein N of SARS-CoV Urbani (Rabbit serum looped peptides)” value [2] was 0.7.

With KDPQFKDNVILLNKH the “Binding of antibody 03-018 to linear peptides of the N protein of SARS-CoV Urbani” value [1] was 0.1, the “Binding of antibody 03-018 to looped/cyclic peptides of the N protein of SARS-CoV Urbani” value [1] was 0.2 and the “Binding … (Rabbit serum linear peptides)” value [2] was 0.2. For the same sequence, the “Binding of a rabbit serum to looped/cyclic peptides of protein N of SARS-CoV Urbani (Rabbit serum looped peptides)” value [2] was 0.5.

LDDKDPQFKDNVILL was tested, and the “Binding of antibody 03-018 to linear peptides of the N protein of SARS-CoV Urbani” value [1] was 0.1, the “Binding of antibody 03-018 to looped/cyclic peptides of the N protein of SARS-CoV Urbani” value [1] was 0.3 and the “Binding … (Rabbit serum linear peptides)” value [2] was 0.1. For the same sequence, the “Binding of a rabbit serum to looped/cyclic peptides of protein N of SARS-CoV Urbani (Rabbit serum looped peptides)” value [2] was 0.2.

With STPGSSRGNSPARMA the “Binding of antibody 03-018 to linear peptides of the N protein of SARS-CoV Urbani” value [1] was 0.1, the “Binding of antibody 03-018 to looped/cyclic peptides of the N protein of SARS-CoV Urbani” value [1] was 0.2 and the “Recognition of the peptide by the rabbit serum” value [2] was “recognized”. The “Binding of serum 1a to linear peptide (PEPSCAN-ELISA)” value [4] was 0.5, the “Binding of serum 1a to looped/cyclic peptides of protein N of SARS-CoV Urbani” value [4] was 0.3 and the “Binding of serum 1b to linear peptide (PEPSCAN-ELISA)” value [4] was 0.3. For the same sequence, the “Binding of serum 1b to looped/cyclic peptides of protein N of SARS-CoV Urbani” value [4] was 0.2, the “Binding of serum 2 to linear peptide (PEPSCAN-ELISA)” value [4] was 0.4 and the “Binding of serum 2 to looped/cyclic peptides of protein N of SARS-CoV Urbani” value [4] was 0.4. For the same sequence, the “Binding of serum 6 to linear peptide (PEPSCAN-ELISA)” value [4] was 0.3, the “Binding of serum 6 to looped/cyclic peptides of protein N of SARS-CoV Urbani” value [4] was 0.4 and the “Binding of serum 37 to linear peptide (PEPSCAN-ELISA)” value [4] was 0.7. For the same sequence, the “Binding of serum 37 to looped/cyclic peptides of protein N of SARS-CoV Urbani” value [4] was 0.6, the “Binding of serum 62 to linear peptide (PEPSCAN-ELISA)” value [4] was 0.8 and the “Binding of serum 62 to looped/cyclic peptides of protein N of SARS-CoV Urbani” value [4] was 0.5. For the same sequence, the “Binding of serum London to linear peptide (PEPSCAN-ELISA)” value [4] was 0.5, the “Binding of serum London to looped/cyclic peptides of protein N of SARS-CoV Urbani” value [4] was 0.5 and the “Binding of serum SARS-green to linear peptide (PEPSCAN-ELISA)” value [4] was 0.8. For the same sequence, the “Binding of serum SARS-green to looped/cyclic peptides of protein N of SARS-CoV Urbani” value [4] was 0.2, the “Binding of serum SARS-yellow to linear peptide (PEPSCAN-ELISA)” value [4] was 0.7 and the “Binding of serum SARS-yellow to looped/cyclic peptides of protein N of SARS-CoV Urbani” value [4] was 0.5.

For YSTAWLCALGKVLPF, the “Rabbit serum linear peptides” value [2] was 0.7, the “Rabbit serum looped peptides” value [2] was 1.0 and the “Binding of Control Serum Blood-Bank to Looped peptides” value [3] was 0.4. The “Binding of Control serum Blood-bank to linear peptides” value [3] was 0.8, the “Binding of Control serum LUMC to linear peptides” value [3] was 0.5 and the “Binding of Control serum LUMC to looped peptides” value [3] was 0.5. For the same sequence, the “Binding of serum 1a to linear peptides of protein X5 of SARS-CoV Urbani” value [4] was 0.7, the “Binding of serum 1a to looped/cyclic peptides of protein X5 of SARS-CoV Urbani” value [4] was 0.5 and the “Binding of serum 1b to linear peptides of protein X5 of SARS-CoV Urbani” value [4] was 0.6. The “Binding of serum 1b to looped/cyclic peptides of protein X5 of SARS-CoV Urbani” value [4] was 0.3, the “Binding of serum 2 to linear peptides of protein X5 of SARS-CoV Urbani” value [4] was 0.7 and the “Binding of serum 2 to looped/cyclic peptides of protein X5 of SARS-CoV Urbani” value [4] was 0.5. The “Binding of serum 6 to linear peptides of protein X5 of SARS-CoV Urbani” value [4] was 0.6, the “Binding of serum 6 to looped/cyclic peptides of protein X5 of SARS-CoV Urbani” value [4] was 0.6 and the “Binding of serum 37 to linear peptides of protein X5 of SARS-CoV Urbani” value [4] was 0.6. For the same sequence, the “Binding of serum 37 to looped/cyclic peptides of protein X5 of SARS-CoV Urbani” value [4] was 0.5, the “Binding of serum 62 to linear peptides of protein X5 of SARS-CoV Urbani” value [4] was 0.8 and the “Binding of serum 62 to looped/cyclic peptides of protein X5 of SARS-CoV Urbani” value [4] was 0.8. For the same sequence, the “Binding of serum London to linear peptides of protein X5 of SARS-CoV Urbani” value [4] was 0.8, the “Binding of serum London to looped/cyclic peptides of protein X5 of SARS-CoV Urbani” value [4] was 0.4 and the “Binding of serum SARS-green to linear peptides of protein X5 of SARS-CoV Urbani” value [4] was 0.5. The “Binding of serum SARS-green to looped/cyclic peptides of protein X5 of SARS-CoV Urbani” value [4] was 0.2, the “Binding of serum SARS-yellow to linear peptides of protein X5 of SARS-CoV Urbani” value [4] was 0.4 and the “Binding of serum SARS-yellow to looped/cyclic peptides of protein X5 of SARS-CoV Urbani” value [4] was 0.9.

YYQLESTQITTDTGI was tested, and the “Binding of a rabbit serum to linear peptides” value [2] was 0.1, the “Binding of a rabbit serum to looped peptides” value [2] was 0.6 and the “Binding of Control Serum Blood-Bank to Looped peptides” value [3] was 0.4. The “Binding of Control serum Blood-bank to linear peptides” value [3] was 0.4, the “Binding of Control serum LUMC to linear peptides” value [3] was 0.5 and the “Binding of Control serum LUMC to looped peptides” value [3] was 0.4. For the same sequence, the “Binding of serum 1a to linear peptides of protein X1 of SARS-CoV Urbani” value [4] was 0.7, the “Binding of serum 1a to looped/cyclic peptides of protein X1 of SARS-CoV Urbani” value [4] was 0.4 and the “Binding of serum 1b to linear peptides of protein X1 of SARS-CoV Urbani” value [4] was 0.7. For the same sequence, the “Binding of serum 1b to looped/cyclic peptides of protein X1 of SARS-CoV Urbani” value [4] was 0.3, the “Binding of serum 2 to linear peptides of protein X1 of SARS-CoV Urbani” value [4] was 0.4 and the “Binding of serum 2 to looped/cyclic peptides of protein X1 of SARS-CoV Urbani” value [4] was 0.2. The “Binding of serum 6 to linear peptides of protein X1 of SARS-CoV Urbani” value [4] was 0.5, the “Binding of serum 6 to looped/cyclic peptides of protein X1 of SARS-CoV Urbani” value [4] was 0.2 and the “Binding of serum 37 to linear peptides of protein X1 of SARS-CoV Urbani” value [4] was 0.7. The “Binding of serum 37 to looped/cyclic peptides of protein X1 of SARS-CoV Urbani” value [4] was 0.5, the “Binding of serum 62 to linear peptides of protein X1 of SARS-CoV Urbani” value [4] was 0.5 and the “Binding of serum 62 to looped/cyclic peptides of protein X1 of SARS-CoV Urbani” value [4] was 0.4. The “Binding of serum London to linear peptides of protein X1 of SARS-CoV Urbani” value [4] was 0.2, the “Binding of serum London to looped/cyclic peptides of protein X1 of SARS-CoV Urbani” value [4] was 0.2 and the “Binding of serum SARS-green to linear peptides of protein X1 of SARS-CoV Urbani” value [4] was 0.2. The “Binding of serum SARS-green to looped/cyclic peptides of protein X1 of SARS-CoV Urbani” value [4] was 0.3, the “Binding of serum SARS-yellow to linear peptides of protein X1 of SARS-CoV Urbani” value [4] was 0.3 and the “Binding of serum SARS-yellow to looped/cyclic peptides of protein X1 of SARS-CoV Urbani” value [4] was 0.3.
